Experimental findings from publication PMC10994559 (PLOS Neglected Tropical Diseases, 2024) are described below.

Structures are written as SMILES. “And” between values parts separate entries of the source, which are not always exact repeats. Equal entries are not always repeated. Where two headings read alike, the source gives them in different places.

In data set [1] the test system is T. cruzi trypomastigotes. Kind of data set: T. cruzi viability, resazurin reduction. The format is cell-based, Trypanosoma cruzi. The note with it: 72 h; for viability at 2.5 µM / viability at 25 µM: Trypanosoma cruzi; for viability at 2.5 µM: read-out: Residual viability, T.cruzi (2.5 µM), 2.5 µM, 72 h; for viability at 25 µM: read-out: Residual viability, T.cruzi (25 µM), 25 µM, 72 h. In short, it runs like this:
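Y-strain trypomastigotes kept in supplemented liver infusion tryptose broth with 10% FCS, pH 7.2, at 28°C. Viability by fluorescence resazurin reduction; single-point screen at 2.5 μM, then 18-concentration dose response. Amphotericin B as control drug.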

A short description of data set [2]: Body weight and tolerability during treatment in the mouse model. The format is in vivo, Balb/c mice. The following applies: for Body weight during treatment course: PHT-39 13.75 mg/kg i.p. or s.c., AmB 8 mg/kg i.p., vs DMSO. As for the experimental part: L. major metacyclic promastigotes were prepared from a five day stationary phase culture through Ficoll gradient centrifugation according to previous studies with minor changes: Briefly, a 20% and 10% Ficoll gradient were prepared in PBS and M199 media, respectively and placed in a 14 ml falcon tube. Then, 1x10^9 L. major promastigotes were loaded on top of gradient and centrifuged. Metacyclic parasites were collected between two layers. Four groups of mice (n = 6) were challenged by subcutaneous injection of 2x10^6 stationary phase metacyclic promastigotes (50 μl in PBS) into the left hind footpad. Two weeks after infectious challenge, animals were treated by i.p or intralesional (s.c) PHT-39 injection (13.75 mg/kg body weight), daily or every other day, respectively, for ten days. AmB (8 mg/kg body weight) was applied as positive control drug (i.p injection for ten days) and 5% DMSO in distilled water was applied as negative control (s.c injection for ten days) (Table 1).
Every four days after the challenge, body weight was monitored and footpad swelling changes were measured (Footpad swelling = (height + width)/2) with a metric caliper (Kroeplin, IP65, D-series, external measuring gauge).

In data set [3] the test system is L. major promastigotes. Nature of the data set: L. major promastigote viability, resazurin reduction. The format is cell-based, Leishmania major. The note with it: Leishmania major; for EC50: dose response, triplicate. An excerpt:
(§1) The infectivity of the parasites was boosted by passaging in Balb/c mice and culturing the infected lymph nodes after six weeks. L. infantum (MHOM / BR / 76 / M4192) parasite was passaged in the same media formulation with 0.5% urine.

Data set [4] deals with L. infantum promastigotes. Kind of data set: L. infantum promastigote viability, resazurin reduction. The format is cell-based, Leishmania infantum. The note with it: Leishmania infantum, 72 h; for viability at 2.5 µM: read-out: Residual viability, L. infantum promastigote (2.5 µM); for viability at 25 µM: read-out: Residual viability, L. infantum promastigote (25 µM).
From the text: as §1

Data set [5] relates to intracellular L. infantum amastigotes. Kind of data set: Parasite rescue assay (intramacrophage, J774 infected with L. infantum). The format is cell-based, Leishmania infantum.
The subject of data set [6] is L. major axenic amastigotes. Nature of the data set: L. major axenic amastigote viability, resazurin reduction. The following applies: Leishmania major; for viability at 2.5 µM / viability at 25 µM: 72 h; for viability at 2.5 µM: read-out: Residual viability, L.major amastigote (2.5 µM); for viability at 25 µM: read-out: Residual viability, L.major amastigote (25 µM); for EC50: read-out: EC50 L. major axenic amastigote. In outline:
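Axenic L. major LV561 amastigotes were grown in Grace medium with 20% FCS, pH 5.4, at 33°C and seeded at 0.5x10^5 cells/well with compounds for 72 h. Resazurin was then added for 6 h and fluorescence read at ex 550/em 590 nm; hits were retested at 2.5 μM.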

In data set [7] the test system is Murine macrophage cells (J774). Kind of data set: Cytotoxicity assay J774, resazurin reduction. The format is cell-based. The note with it: cytotoxicity, 72 h. In outline:
(§2)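 J774 and HepG2 cells were seeded at 0.5x10^5 cell/well and exposed to serially diluted compounds for 72 h at 37°C, 5% CO2. Viability was read by fluorescence resazurin reduction (λEx 550 nm, λEm 590 nm).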

Data set [8] in a line: Cytotoxicity assay J774, resazurin reduction. The note with it: mouse, J774 macrophage cells, cytotoxicity, 72 h; for viability at 72 h, 2.5 µM: read-out: Residual viability, J774 (2.5 µM); for viability at 72 h, 25 µM: read-out: Residual viability, J774 (25 µM). The format is cell-based, murine. In short, it runs like this: as §2
Setting [9] is: Leishmania infantum, J774, read-out: EC50 L. infantum rescue assay, intramacrophage (J774), 18 concentrations.

`C[C@@H]1[C@H](O)[C@@H](C)/C=C/C=C/C=C/C=C/C=C/C=C/C=C/[C@H](O[C@@H]2O[C@H](C)[C@@H](O)[C@H](N)[C@@H]2O)C[C@@H]2O[C@](O)(C[C@@H](O)C[C@@H](O)[C@H](O)CC[C@@H](O)C[C@@H](O)CC(=O)O[C@H]1C)C[C@H](O)[C@H]2C(=O)O` [AmB, amphotericin B, reference compound]: the “Residual viability, T.cruzi (25 µM)” value in data set [1] (25 µM) is given as 7.37±1.09%. For the same compound, the viability at 2.5 µM in data set [1] is 8.07 ± 0.38%; in data set [4], 2.55 ± 0.17%; in data set [6] it was 2.71 ± 1.02%. For the same compound, the viability at 25 µM in data set [1] turned out to be 7.4%; in data set [4], 5.4 ± 0.73%; in data set [5] (Leishmania infantum, J774, read-out: Residual viability, intracellular L. infantum amastigote (25 µM)), 15.4 ± 6.9%; in data set [6], 0.33 ± 2.12%. Also, the “Body weight during treatment course” value in data set [2] is given as “significant differences with other groups”. Also, the EC50 in data set [3] was 0.2 µM; in data set [5] (setting [9]), 0.6 µM; in data set [5] (read-out: EC50 L. infantum rescue assay, intramacrophage (J774), 18 concentrations), 0.7 µM and 0.66 µM; in data set [6], 0.3 µM; in data set [7] (Mus musculus, J774, 72 h) it was greater than 10 µM; in data set [7], greater than 16 µM. Moreover, the viability at 72 h, 2.5 µM in data set [8] turned out to be 101 ± 11.8%. The viability at 72 h, 25 µM in data set [8] was 57.73 ± 0.52%.
In the case of `CC[C@@H](C)[C@H](c1nc2ccccc2n1Cc1cn(-c2ccc(C(F)(F)F)cc2)nn1)N1C(=O)c2ccccc2C1=O` [PHT-39], the results for the viability at 2.5 µM in data set [1], in data set [4] and in data set [6] were 57.6 ± 1.04%, 58.8 ± 1.22% and 62.1 ± 3.43%, respectively. Also, the viability at 25 µM is 31.5 ± 1.51% in data set [1]; 16.6 ± 1.6% in data set [3] (72 h, read-out: Residual viability, L.major promastigote (25 µM)); 7.71 ± 1.03% in data set [4]; 16.3% in data set [5] (Leishmania infantum, J774, rescue assay in J774, 25 µM, read-out: Residual viability, intracellular L. infantum amastigote (25 µM)); 2.6% in data set [6]. The “Body weight during treatment course” value in data set [2] is on record as “did not affect the body weight”. In addition, the “Compound related toxicity in mice” value in data set [2] (intraperitoneal or subcutaneous injection for 10 and 5 days) is on record as “did not expose any compound related toxicity”. The EC50 in data set [3] is 5.9 ± 1.8 µM; in data set [5] (setting [9]), 1.2 ± 3.2 µM; in data set [5] (read-out: EC50 L. infantum rescue assay, intramacrophage (J774), 18 concentrations, listed as PH-39), 1.21 ± 3.2 µM; in data set [6], 2.6 ± 1.8 µM; in data set [7] (Mus musculus, J774, 72 h), greater than 16 µM. For the same compound, the “Residual viability, intracellular L. infantum amastigote (25 µM)” value in data set [5] (rescue assay in J774, 25 µM, 25 µM) worked out at 16.34±4.67%. For the same compound, the viability at 72 h, 2.5 µM in data set [8] is 98.3 ± 2.92%. The viability at 72 h, 25 µM in data set [8] is 68 ± 9.09%.
